{
  "source": "patent US10201559B2",
  "about": "“Compositions of selenoorganic compounds and methods of use thereof” (Alltech, Inc., priority 2014, dated 2019)",
  "key": {"[1]": {"system": "Gsk3b", "assay": "Western blot, Gsk3b in IMR-32 cells", "format": "cell-based, human", "conditions": "150 ppb, 24 hr, compared to control cells", "procedure": "(§1) IMR-32 and AML12 cells were seeded on 6-well plates, and then treated with vehicle and various compounds for 6 and 24 hr, as described above. After treatments, cells were rinsed with ice-cold PBS, and lysed in the ice-cold RIPA buffer containing complete proteinase and phosphotase inhibitors (Themo-Fisher Scientific, Waltham, Mass.) on ice for 30 min. Cell lysates were collected using a cell scraper and transfer pipette, and then centrifuged at 12000 g for 30 min at 4° C. to remove the DNA pellet and obtain the protein extract. Protein levels in the supernatant of these cell lysates were determined using the Pierce Micro-BCA protein assay kit (Themo Scientific-Piece Biotechnology, Rockford, Ill.) according to the manufacturer's protocol.\n(§2) For Western blot analysis, five micrograms of total proteins from vehicle- and compound(s)-treated cells were subjected to SDS-PAGE gel separation, and then transferred to PVDF membranes, as described previously (Reddy, Liu et al. 2008 Science). […] All primary antibodies except G6PC (Santa Cruz), Actb (Li-COR, Lincoln, Nebr.), Elf2bε and pElf2bε (Abcam, Cambridge, Mass.) were purchased from Cell Signaling Inc. Positive signals on the membrane blots were detected using the Amersham's enhanced chemiluminescence Western Blotting Prime Detection reagents (GE healthcare Lifescience, Pittsburgh, Pa.). […]"}, "[2]": {"system": "Tau", "assay": "Western blot, ratio of phosphorylated Tau to total Tau in IMR-32 cells", "format": "cell-based, human", "conditions": "150 ppb, 24 hr", "procedure": "as §1, §2"}, "[3]": {"system": "C2C12 cells", "assay": "Cell viability assay, C2C12", "format": "cell-based, mouse", "conditions": "24 hr and 48 hr, same doses", "procedure": "Cell viability in cultured cells was determined using Promega's CellTiter96® AQueous One Solution Cell Proliferation Assay kits, according to the Manufacturer's protocol. In brief, equal number of C2C12 (1×10^4 cells/well), AML-12 (1×10^4 cells/well) and IMR-32 (2×10^4 cells/well) were seeded on 96-well clear plates (VWR) and treated with vehicle or compounds for 24, […] and/or 72 hr. Then, cultured cells were incubated with AQueous One solution (100 ul/per well) at 37° C. for 1 hr, and the absorbance of OD490 nm in each sample was determined by the Bio-Tek microplate reader. Cell viability in culture cells were determined by the subtraction of OD490 nm in cultured cells with the OD490 nm in plain culture media (without seeding of cells). Eight samples per each treatment were examined for the above analysis. Data are presented as Mean±sem of eight samples."}, "[4]": {"system": "PEN2", "assay": "Western blot, PEN2 in IMR-32 cells", "format": "cell-based, human", "conditions": "150 ppb, 24 hr", "procedure": "as §1, §2"}, "[5]": {"system": "PSEN", "assay": "Western blot, PSEN in IMR-32 cells", "format": "cell-based, human", "conditions": "150 ppb, 24 hr", "procedure": "as §1, §2"}, "[6]": {"system": "beta-secretase BACE", "assay": "Western blot, BACE in IMR-32 cells", "format": "cell-based, human", "conditions": "150 ppb, 24 hr", "procedure": "as §1, §2"}},
  "data": [
    {"smiles": "C[Se]C[C@H]1O[C@@H](n2cnc3c(N)ncnc32)C(O)C1O", "note": "(stereo in doubt) [compound C, 5′-Methylselenoadenosine]", "values": [
      {"measurement": "Gsk3b protein levels", "setting": "[1]", "value": "statistically significant decrease of Gsk3b protein levels"},
      {"measurement": "ratio of total pTauS396 and pTauS400/T403/S404 to total Tau proteins", "setting": "[2]", "value": "significantly attenuated total phosphorylation of Tau protein"},
      {"measurement": "cell viability", "setting": "[3]", "value": "did not affect cell viability"},
      {"measurement": "PEN2 protein", "setting": "[4]", "value": "but not PEN2 and beta-secretase BACE proteins were attenuated"},
      {"measurement": "PSEN protein level", "setting": "[5]", "value": "significant reduction"},
      {"measurement": "beta-secretase BACE protein", "setting": "[6]", "value": "but not PEN2 and beta-secretase BACE proteins were attenuated"}
    ]},
    {"smiles": "Nc1ncnc2c1ncn2[C@@H]1O[C@H](C[Se]CC[C@@H](N)C(=O)O)C(O)C1O", "note": "(some centres unmarked) [compound D, 5′-Selenoadenosyl homocysteine]", "values": [
      {"measurement": "cell viability", "setting": "[3]", "value": "did not affect cell viability"}
    ]},
    {"smiles": "C[Se]CC(NC(=O)CCC(N)C(=O)O)C(=O)O", "note": "(centres unmarked) [compound E, gamma-glutamyl-methylseleno-cysteine]", "values": [
      {"measurement": "ratio of total pTauS396 and pTauS400/T403/S404 to total Tau proteins", "setting": "[2]", "value": "trend of reduced Tau phosphorylation"}
    ]}
  ]
}
